Source: ChEMBL document CHEMBL4680170, “Anticancer activity of 4'-phenyl-2,2':6',2″-terpyridines - behind the metal complexation” (Eur J Med Chem, 2020)
The source made the active and inactive calls. No cut-off for these calls is given here.

Key:
U-251 = test: Antiproliferative activity against human U251 cells assessed as reduction in cell viability measured after 72 hrs by MTS assay; type: functional, cell-based; details: U-251, 72 h
Calf thymus DNA [1] = test: Binding affinity to calf thymus DNA assessed as DNA intercalation by measuring bathochromic shift incubated for 1.5 hrs by spectrophotometric analysis; type: tissue-based; details: Bos taurus
MCF7 [2] = test: Induction of apoptosis in human MCF7 cells assessed as decrease in p21 expression at 2.5 uM incubated for 24 hrs by immunoblot analysis; type: functional, cell-based
MCF7 [3] = test: Induction of apoptosis in human MCF-7 cells assessed as proportion of early apoptotic cells at 2.5 uM incubated for 48 hrs by Annexin V Muse cell analyzer based flow cytometry (reference value: 3.05%); type: functional
Calf thymus DNA [4] = test: Binding affinity to calf thymus DNA assessed as DNA intercalation by measuring hypochromic shift incubated for 1.5 hrs by spectrophotometric analysis; type: tissue-based; details: Bos taurus
MCF7 [5] = test: Induction of apoptosis in human MCF7 cells assessed as cytochrome c release into cytosol at 2.5 uM incubated for 24 hrs by immunoblot analysis; type: functional, cell-based
MCF7 [6] = test: Induction of ROS generation in human MCF7 cells at 1 uM measured after 24 hrs by CellRox Green reagent/Hoechst 33342 staining based fluorescence analysis relative to control; type: functional
A549 = test: Antiproliferative activity against human A549 cells assessed as reduction in cell viability measured after 72 hrs by MTS assay; type: functional, cell-based; details: A549, 72 h
MCF7 [7] = test: Induction of ROS generation in human MCF7 cells at 1 uM measured after 1 hr by CellRox Green reagent/Hoechst 33342 staining based fluorescence analysis; type: functional, cell-based
MCF7 [8] = test: Antiproliferative activity against human MCF-7 cells assessed as reduction in cell viability measured after 72 hrs in presence of ZnCl2 by MTS assay; type: functional, cell-based; details: MCF7, 72 h
MCF7 [9] = test: Antiproliferative activity against human MCF-7 cells assessed as reduction in cell viability at 0.1 uM measured after 72 hrs in presence of ZnCl2 by MTS assay; type: functional, cell-based
DNA [10] = test: Induction of Escherichia coli supercoiled pUC19 plasmid DNA cleavage assessed as linear form formation at 50 uM incubated for 60 mins by agarose gel electrophoresis analysis; type: nucleic-acid assay
MCF7 [11] = test: Antiproliferative activity against human MCF-7 cells assessed as reduction in cell viability measured after 72 hrs in presence of FeSO4 by MTS assay; type: functional, cell-based; details: MCF7, 72 h
MCF7 [12] = test: Antiproliferative activity against human MCF-7 cells assessed as reduction in cell viability measured after 72 hrs in presence of CuSO4 by MTS assay; type: functional, cell-based; details: MCF7, 72 h
MCF7 [13] = test: Induction of apoptosis in human MCF-7 cells assessed as proportion of late apoptotic cells at 5 uM incubated for 48 hrs by Annexin V Muse cell analyzer based flow cytometry (reference value: 2.3%); type: functional
MCF7 [14] = test: Antiproliferative activity against human MCF-7 cells assessed as reduction in cell viability at 0.1 uM measured after 72 hrs in presence of CdSO4 by MTS assay; type: functional, cell-based
MCF7 [15] = test: Induction of apoptosis in human MCF-7 cells assessed as proportion of early apoptotic cells at 1 uM incubated for 48 hrs by Annexin V Muse cell analyzer based flow cytometry (reference value: 3.05%); type: functional
MCF7 [16] = test: Induction of apoptosis in human MCF-7 cells assessed as proportion of late apoptotic cells at 2.5 uM incubated for 48 hrs by Annexin V Muse cell analyzer based flow cytometry (reference value: 2.3%); type: functional
MCF7 [17] = test: Induction of cell cycle arrest in human MCF-7 cells assessed as increase in cell accumulation at G0/G1 phase incubated for 24 hrs by Muse cell analyzer based flow cytometry; type: functional; details: dose 1-5 µM
MCF7 [18] = test: Induction of apoptosis in human MCF7 cells assessed as p53 activation at 2.5 uM incubated for 24 hrs by immunoblot analysis; type: functional, cell-based
MCF7 [19] = test: Antiproliferative activity against human MCF-7 cells assessed as reduction in cell viability at 0.1 uM measured after 72 hrs in presence of FeSO4 by MTS assay; type: functional, cell-based
MCF7 [20] = test: Antiproliferative activity against human MCF-7 cells assessed as reduction in cell viability at 0.1 uM measured after 72 hrs in presence of FeCl3 by MTS assay; type: functional, cell-based
NHDF = test: Cytotoxicity against human NHDF cells assessed as reduction in cell viability measured after 72 hrs by MTS assay; type: cell-based
MCF7 [21] = test: Induction of apoptosis in human MCF-7 cells assessed as proportion of viable cells at 1 uM incubated for 48 hrs by Annexin V Muse cell analyzer based flow cytometry (reference value: 94.2%); type: functional
MCF7 [22] = test: Induction of apoptosis in human MCF-7 cells assessed as proportion of necrotic cells at 5 uM incubated for 48 hrs by Annexin V Muse cell analyzer based flow cytometry (reference value: 0.45%); type: functional
MCF7 [23] = test: Induction of cell cycle arrest in human MCF-7 cells assessed as accumulation at S phase at 5 uM incubated for 24 hrs by Muse cell analyzer based flow cytometry (reference value: 11.1%); type: functional
MCF7 [24] = test: Induction of apoptosis in human MCF-7 cells assessed as proportion of necrotic cells at 2.5 uM incubated for 48 hrs by Annexin V Muse cell analyzer based flow cytometry (reference value: 0.45%); type: functional
HCT-116 = test: Antiproliferative activity against human HCT 116 cells assessed as reduction in cell viability measured after 72 hrs by MTS assay; type: functional, cell-based; details: HCT-116, 72 h
MCF7 [25] = test: Induction of apoptosis in human MCF-7 cells assessed as proportion of necrotic cells at 1 uM incubated for 48 hrs by Annexin V Muse cell analyzer based flow cytometry (reference value: 0.45%); type: functional
[26] = Drug uptake in human MCF7 cells mitochondria at 25 uM incubated for 2 hrs by MitoTracker Orange/LysoTracker staining based fluorescence microscopy; type: ADME; details: mcf7, 2 h
MCF7 [27] = test: Induction of apoptosis in human MCF-7 cells incubated for 48 hrs by Annexin V Muse cell analyzer based flow cytometry; type: functional; details: dose 1-5 µM
MCF7 [28] = test: Induction of apoptosis in human MCF-7 cells assessed as proportion of early apoptotic cells at 5 uM incubated for 48 hrs by Annexin V Muse cell analyzer based flow cytometry (reference value: 3.05%); type: functional
DNA [29] = test: Induction of Escherichia coli supercoiled pUC19 plasmid DNA cleavage assessed as open circular form formation at 50 uM incubated for 60 mins by agarose gel electrophoresis analysis; type: nucleic-acid assay
MCF7 [30] = test: Induction of cell cycle arrest in human MCF-7 cells assessed as accumulation at G2/M phase at 1 uM incubated for 24 hrs by Muse cell analyzer based flow cytometry (reference value: 36.9%); type: functional
MCF7 [31] = test: Induction of cell cycle arrest in human MCF-7 cells assessed as accumulation at S phase at 1 uM incubated for 24 hrs by Muse cell analyzer based flow cytometry (reference value: 11.1%); type: functional
MCF7 [32] = test: Induction of cell cycle arrest in human MCF-7 cells assessed as accumulation at G0/G1 phase at 1 uM incubated for 24 hrs by Muse cell analyzer based flow cytometry (reference value: 47.4%); type: functional
MCF7 [33] = test: Induction of apoptosis in human MCF7 cells assessed as early apoptotic cells by measuring chromatin condensation and nuclear fragmentation at 5 uM incubated for 24 hrs by AO/EB staining based fluorescence microscopy; type: functional, cell-based
MCF7 [34] = test: Potency index, ratio of doxorubicin IC50 to test compound IC50 for anticancer activity against human MCF7 cells measured after 72 hrs by MTS assay; type: functional
MCF7 [35] = test: Induction of apoptosis in human MCF-7 cells assessed as proportion of late apoptotic cells at 1 uM incubated for 48 hrs by Annexin V Muse cell analyzer based flow cytometry (reference value: 2.3%); type: functional
MCF7 [36] = test: Antiproliferative activity against human MCF-7 cells assessed as reduction in cell viability measured after 72 hrs by MTS assay; type: functional, cell-based; details: MCF7, 72 h
MCF7 [37] = test: Induction of cell cycle arrest in human MCF-7 cells assessed as accumulation at G0/G1 phase at 5 uM incubated for 24 hrs by Muse cell analyzer based flow cytometry (reference value: 47.4%); type: functional
MCF7 [38] = test: Induction of cell cycle arrest in human MCF-7 cells assessed as accumulation at G0/G1 phase at 2.5 uM incubated for 24 hrs by Muse cell analyzer based flow cytometry (reference value: 47.4%); type: functional
MCF7 [39] = test: Antiproliferative activity against human MCF-7 cells assessed as reduction in cell viability measured after 72 hrs in presence of FeCl3 by MTS assay; type: functional, cell-based; details: MCF7, 72 h
MCF7 [40] = test: Induction of cell cycle arrest in human MCF-7 cells assessed as accumulation at G2/M phase at 5 uM incubated for 24 hrs by Muse cell analyzer based flow cytometry (reference value: 36.9%); type: functional
MCF7 [41] = test: Induction of apoptosis in human MCF-7 cells assessed as proportion of viable cells at 2.5 uM incubated for 48 hrs by Annexin V Muse cell analyzer based flow cytometry (reference value: 94.2%); type: functional
MCF7 [42] = test: Antiproliferative activity against human MCF-7 cells assessed as reduction in cell viability measured after 72 hrs in presence of CdSO4 by MTS assay; type: functional, cell-based; details: MCF7, 72 h
MCF7 [43] = test: Induction of apoptosis in human MCF-7 cells assessed as proportion of viable cells at 5 uM incubated for 48 hrs by Annexin V Muse cell analyzer based flow cytometry (reference value: 94.2%); type: functional
MCF7 [44] = test: Induction of apoptosis in human MCF7 cells assessed as increase in AIP protein expression at 2.5 uM incubated for 24 hrs by immunoblot analysis; type: functional, cell-based
MCF7 [45] = test: Potency index, ratio of oxaliplatin IC50 to test compound IC50 for anticancer activity against human MCF7 cells measured after 72 hrs by MTS assay; type: functional
MCF7 [46] = test: Induction of cell cycle arrest in human MCF-7 cells assessed as accumulation at G2/M phase at 2.5 uM incubated for 24 hrs by Muse cell analyzer based flow cytometry (reference value: 36.9%); type: functional
MCF7 [47] = test: Induction of cell cycle arrest in human MCF-7 cells assessed as accumulation at S phase at 2.5 uM incubated for 24 hrs by Muse cell analyzer based flow cytometry (reference value: 11.1%); type: functional
PANC-1 = test: Antiproliferative activity against human PANC-1 cells assessed as reduction in cell viability measured after 72 hrs by MTS assay; type: functional, cell-based; details: PANC-1, 72 h
MCF7 [48] = test: Antiproliferative activity against human MCF-7 cells assessed as reduction in cell viability at 0.1 uM measured after 72 hrs in presence of CuSO4 by MTS assay; type: functional, cell-based
MCF7 [49] = test: Induction of apoptosis in human MCF7 cells assessed as late apoptotic cells by measuring condensed and fragmented nuclei formation at 5 uM incubated for 24 hrs by AO/EB staining based fluorescence microscopy; type: functional, cell-based

Structure (SMILES): CCCCCCCCCCn1cc(-c2ccc(-c3cc(-c4ccccn4)nc(-c4ccccn4)c3)cc2)nn1
- IC50 (U-251): 140 nM
- Activity (Calf thymus DNA [1]): Active
- Activity (MCF7 [2]): Active
- Activity (MCF7 [3]): 8.95%
- Activity (Calf thymus DNA [4]): 18.2%
- Activity (MCF7 [5]): Active
- Activity (MCF7 [6]): 140%
- IC50 (A549): 750 nM
- Activity (MCF7 [7]): Active
- IC50 (MCF7 [8]): 1000 nM
- Activity (MCF7 [9]): Active
- Activity (DNA [10]): Active
- IC50 (MCF7 [11]): 1000 nM
- IC50 (MCF7 [12]): 39 nM
- Activity (MCF7 [13]): 15.3%
- Activity (MCF7 [14]): Active
- Activity (MCF7 [15]): 3.45%
- Activity (MCF7 [16]): 16.25%
- Activity (MCF7 [17]): Dose-dependent effect
- Activity (MCF7 [18]): inactive
- Activity (MCF7 [19]): Active
- Activity (MCF7 [20]): Active
- IC50 (NHDF): 20800 nM
- Activity (MCF7 [21]): 79.1%
- Activity (MCF7 [22]): 6.9%
- Activity (MCF7 [23]): 14.3%
- Activity (MCF7 [24]): 4.9%
- IC50 (HCT-116): 270 nM
- Activity (MCF7 [25]): 8.9%
- Drug uptake [26]: Active
- Activity (MCF7 [27]): Dose-dependent effect
- Activity (MCF7 [28]): 30.2%
- Activity (DNA [29]): Active
- Activity (MCF7 [30]): 34.3%
- Activity (MCF7 [31]): 16.3%
- Activity (MCF7 [32]): 45.5%
- Activity (MCF7 [33]): Active
- Ratio IC50 (MCF7 [34]): 10
- Activity (MCF7 [35]): 8.55%
- IC50 (MCF7 [36]): 40 nM
- Activity (MCF7 [37]): 66.2%
- Activity (MCF7 [38]): 57.4%
- IC50 (MCF7 [39]): 1000 nM
- Activity (MCF7 [40]): 24%
- Activity (MCF7 [41]): 69.9%
- IC50 (MCF7 [42]): 1000 nM
- Activity (MCF7 [43]): 47.6%
- Activity (MCF7 [44]): Active
- Ratio IC50 (MCF7 [45]): 26
- Activity (MCF7 [46]): 25.2%
- Activity (MCF7 [47]): 13.7%
- IC50 (PANC-1; read-out: IC50): 440 nM
- Activity (MCF7 [48]): Active
- Activity (MCF7 [49]): Active

Structure (SMILES): COc1cccc2c1C(=O)c1c(O)c3c(c(O)c1C2=O)C[C@@](O)(C(=O)CO)C[C@@H]3O[C@H]1C[C@H](N)[C@H](O)[C@H](C)O1 [DOXORUBICIN]
- IC50 (U-251): 50 nM
- Activity (Calf thymus DNA [4]): 34.2%
- IC50 (A549): 1060 nM
- IC50 (MCF7 [36]): 410 nM
- IC50 (PANC-1): 730 nM
